These results are taken from doi:10.1101/2020.05.11.20064584v1 (medRxiv, 2020).

Where two headings read alike, the source gives them in different places.

Data set [1] is described as follows: Rat pharmacokinetics, blood LL-37 by ELISA after gavage. Type of data set: in vivo, SD rats. The conditions noted are these: male, SD, serum, po.
Data set [2] can be described thus: Acute and subchronic toxicity test in rats. The format is in vivo. The conditions noted are these: SD rats, oral gavage, 100 times of the expected clinical dose.
A further data set deals with rVSV-SARS. The following applies: 2 h, 10 ug/ml.
The conditions of data set [3]: 6.0E10/kg·day by gavage, end of two weeks, n=5, Mean ± SEM.

In data set [1], `CC[C@H](C)[C@H](NC(=O)[C@H](CCCCN)NC(=O)[C@H](CCC(=O)O)NC(=O)[C@H](CCCCN)NC(=O)[C@H](CO)NC(=O)[C@H](CCCCN)NC(=O)[C@H](CCCNC(=N)N)NC(=O)[C@H](Cc1ccccc1)NC(=O)[C@H](Cc1ccccc1)NC(=O)[C@H](CC(=O)O)NC(=O)CNC(=O)[C@H](CC(C)C)NC(=O)[C@@H](N)CC(C)C)C(=O)NCC(=O)N[C@@H](CCCCN)C(=O)N[C@@H](CCC(=O)O)C(=O)N[C@@H](Cc1ccccc1)C(=O)N[C@@H](CCCCN)C(=O)N[C@@H](CCCNC(=N)N)C(=O)N[C@H](C(=O)N[C@H](C(=O)N[C@@H](CCC(N)=O)C(=O)N[C@@H](CCCNC(=N)N)C(=O)N[C@H](C(=O)N[C@@H](CCCCN)C(=O)N[C@@H](CC(=O)O)C(=O)N[C@@H](Cc1ccccc1)C(=O)N[C@@H](CC(C)C)C(=O)N[C@@H](CCCNC(=N)N)C(=O)N[C@@H](CC(N)=O)C(=O)N[C@@H](CC(C)C)C(=O)N[C@H](C(=O)N1CCC[C@H]1C(=O)N[C@@H](CCCNC(=N)N)C(=O)N[C@H](C(=O)N[C@@H](CCC(=O)O)C(=O)N[C@@H](CO)C(=O)O)[C@@H](C)O)C(C)C)[C@@H](C)CC)C(C)C)[C@@H](C)CC` [LL-37] registered a level at 1 h of 0.7 ng/mL, a level at 2 h of 1.65 ng/mL, a level at 4 h of 0.92 ng/mL and a level at 6 h of 0.14 ng/mL. The LD50 result in data set [2] was “more than 6 × 10^10 CFU/kg/ day”. Besides, the “maximum inhibition rate, rVSV-SARS” value in the data set with rVSV-SARS worked out at 85%. In data set [3] (female SD rats), this molecule had a CK of 715.56±343.35 U/L, a TC of 1.30 ± 0.20 mM and a TG of 0.33 ± 0.07 mM. In data set [3] (male SD rats), the CK is on record as 661.02±93.22 U/L and the TG was 0.29 ± 0.03 mM.
